In patent US20230183233A1, “Bicyclic Pyridin-2-one and pyrimidin-4-one Derivatives Useful As a Factor XIa Inhibitors” (Janssen Pharmaceutica NV, priority 2021, published 2023):
Where two headings read alike, the source gives them in different places. 5‑FAM = 5-carboxyfluorescein (5-FAM) label at the N-terminus

Experiments:
Type in all cases: biochemical
[1] = molecular target: human plasma kallikrein (Homo sapiens, UniProt P03952); assay: Kallikrein inhibition assay utilizing a quenched AMC peptide substrate (FLINT, kinetic read); settings: read-out: Kallikrein KIN Inh IC50
Sequence of human plasma kallikrein (P03952 391-638 limits assumed): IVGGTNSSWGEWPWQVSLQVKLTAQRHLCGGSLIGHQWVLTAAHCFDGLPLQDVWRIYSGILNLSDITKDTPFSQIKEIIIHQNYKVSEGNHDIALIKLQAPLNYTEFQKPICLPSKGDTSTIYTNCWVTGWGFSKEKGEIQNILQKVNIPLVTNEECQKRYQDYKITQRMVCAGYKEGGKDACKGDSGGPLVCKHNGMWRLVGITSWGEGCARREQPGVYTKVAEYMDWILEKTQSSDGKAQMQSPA
Sequence of human plasma kallikrein (P03952 20-390 partner limits assumed): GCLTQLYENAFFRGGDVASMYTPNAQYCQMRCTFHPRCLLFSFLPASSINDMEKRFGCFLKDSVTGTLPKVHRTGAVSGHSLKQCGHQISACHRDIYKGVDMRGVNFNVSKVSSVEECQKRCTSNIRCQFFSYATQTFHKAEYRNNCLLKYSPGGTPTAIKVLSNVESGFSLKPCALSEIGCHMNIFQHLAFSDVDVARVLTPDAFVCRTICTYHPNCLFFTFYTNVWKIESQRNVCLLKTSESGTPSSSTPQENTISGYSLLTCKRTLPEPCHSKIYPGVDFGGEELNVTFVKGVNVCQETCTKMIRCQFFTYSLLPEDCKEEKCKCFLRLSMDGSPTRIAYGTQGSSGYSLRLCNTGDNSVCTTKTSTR

[2] = molecular target: T1, Factor XIa (Homo sapiens, UniProt P03951); assay: Factor XIa inhibition assay utilizing a fluorophore-quencher pair peptide substrate (FLINT, kinetic read); settings: read-out: FXIa KIN Inh IC50
T1 sequence (P03951 388-625 limits assumed): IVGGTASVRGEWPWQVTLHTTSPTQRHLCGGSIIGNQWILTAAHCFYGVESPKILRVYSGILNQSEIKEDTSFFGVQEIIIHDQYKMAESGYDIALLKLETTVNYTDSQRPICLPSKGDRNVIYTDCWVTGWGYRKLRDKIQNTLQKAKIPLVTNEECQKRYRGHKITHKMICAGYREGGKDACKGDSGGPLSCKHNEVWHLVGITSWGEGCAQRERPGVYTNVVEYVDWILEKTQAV
T1 sequence (P03951 19-387 partner limits assumed): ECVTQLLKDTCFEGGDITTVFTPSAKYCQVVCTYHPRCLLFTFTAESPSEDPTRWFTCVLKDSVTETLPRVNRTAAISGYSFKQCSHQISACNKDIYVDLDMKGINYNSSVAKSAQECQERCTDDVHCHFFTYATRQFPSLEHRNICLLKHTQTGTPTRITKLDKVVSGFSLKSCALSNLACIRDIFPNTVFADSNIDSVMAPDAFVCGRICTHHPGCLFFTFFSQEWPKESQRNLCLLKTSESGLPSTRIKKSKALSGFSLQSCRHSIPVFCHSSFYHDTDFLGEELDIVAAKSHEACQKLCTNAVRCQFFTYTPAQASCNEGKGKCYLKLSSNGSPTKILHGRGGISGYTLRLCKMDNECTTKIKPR
Text: Biological Example 1: Factor XIa Inhibition Assay Utilizing a Fluorophore-Quencher Pair Peptide Substrate A fluorescence intensity (FLINT) based assay was used to monitor inhibition of Factor XIa. The peptide substrate, 5Fam-[…]-K5Tamra (purchased from New England Peptide) was chosen based on the FXI sequence. Conversion of zymogen FXI to its activated form, FXIa, occurs by proteolytic cleavage by […] at two sites, Arg146 and Arg180. The custom peptide used in this assay was based on the Arg146 cleavage site of FXI. The peptide substrate was designed with a fluorophore-quencher pair, where the fluorescence is quenched until FXIa cleaves the 8-mer peptide after the Arg residue.
The 2× Factor XIa stock solution was prepared by diluting 6.562 μM stock in 1× assay buffer for a […].
Test compound(s) were run in an 11-point, 3-fold serial dilution with a final top compound concentration of 100 nM. Final DMSO in assay was 2%. FXIa was preincubated with compound for 30-minutes and then substrate was added to initiate the reaction. The assay was run with kinetic (KIN) reads at 5 min intervals over 30 minutes. […] More specifically, the assay was run as follows: • 100 nL of 0.01 mM test compound was dispensed into black 384-well non-binding Greiner BioOne 784900 plate for 0.1 μM final concentration; • 5 μL of 1× assay buffer was dispensed to column 24 (low control) and 5 μL 2× Factor XIa solution was dispensed to columns 1-23 (column 23 high control); • the plate was centrifuged with a “cover” plate at 500 rpm for 1 min • the plate was pre-incubated for 30 minutes at room temperature with plate covered; • 5 μL of 2× 5Fam-[…]-K5Tamra peptide substrate was dispensed into the entire plate, columns 1-24; • the plate was centrifuged with a “cover” plate at 500 rpm for 1 min; • the plate was read monitoring fluorescence intensity on the BMG PHERAStar at room temperature, using fluorescence module 485 nm/520 nm.
Percent inhibition (IC50) curves were generated per compound tested, and data was analyzed using a 4-parameter logistic fit using GeneData Screener. The relative fluorescence unit (RFU) values were normalized to percent inhibition using the following equation:
% inhibition=((HC−LC)−(compound−LC)/(HC−LC))*100 where LC—low control=mean signal of no Factor XIa or 100% inhibition of Factor XIa; HC—high control=mean signal of Factor XIa+5Fam-[…]-K5Tamra peptide substrate with DMSO only.
An 11-point dose response curve for the test compound(s) was generated using GENDATA to determine IC50 value based on the following equation:
Y=Bottom+(Top−Bottom)/(1+10^((log IC50−X)*HillSlope)) where Y is the % inhibition in the presence of X inhibitor concentration, Top=high control=mean signal of Factor XIa+5Fam-[…]-K5Tamra peptide substrate with DMSO only; Bottom=low control−mean signal of no Factor XIa or 100% inhibition of Factor XIa; HillSlope—Hill coefficient; and IC50=concentration of compound with 50% inhibition in relation to top/high control.

[3] = molecular target: T1, Factor XIa; assay: as above; settings: peptide substrate cleaved by FXIa; fit to a substrate inhibition model

Row | Compound | IC50 ([1]; values in nM) [nM] | IC50 ([2]; values in nM) [nM] | IC50 ([1]; values given with μM) [nM] | other results
1 | C[C@H]1C[C@@H](c2[nH]c(-c3ccc(N)nc3F)nc2F)n2c1cc(-c1c(-n3cnnn3)ccc(Cl)c1F)cc2=O (relative stereo) [Example 35, (1*S,3*S)-3-(2-(6-Amino-2-fluoropyridin-3-yl)-4-fluoro-1H-imidazol-5-yl)-7-(3-chloro-2-fluoro-6-(1H-tetrazol-1-yl)phenyl)-1-methyl-2,3-dihydroindolizin-5(1H)-one] | – | ~610 | 9800 | –
2 | C[C@H]1C[C@H](c2ncc(-c3ccc(N)nc3Cl)[nH]2)n2c1cc(-c1c(-n3cnnn3)ccc(Cl)c1F)cc2=O (relative stereo) [Example 37, (1*S,3*R)-3-(5-(6-Amino-2-chloropyridin-3-yl)-1H-imidazol-2-yl)-7-(3-chloro-2-fluoro-6-(1H-tetrazol-1-yl)phenyl)-1-methyl-2,3-dihydroindolizin-5(1H)-one] | – | 283 | 7800 | –
3 | 5Fam-KLTRAETV-K5Tamra ({5‑FAM}-KLTRAETVK-{5‑TAMRA}) ["The peptide substrate ... designed with a fluorophore-quencher pair", "based on the Arg146 cleavage site of FXI", purchased from New England Peptide] | – | – | – | Ki [3]: 61600 nM; Km [3]: 12.4 µM; kcat [3]: 0.86 s⁻¹
4 | C[C@H]1C[C@@H](c2ncc(-c3ccnc(CN)c3)[nH]2)n2c1cc(-c1c(-n3cnnn3)ccc(Cl)c1F)cc2=O (relative stereo) [Example 39, (1*S,3*S)-3-(5-(2-(Aminomethyl)pyridin-4-yl)-1H-imidazol-2-yl)-7-(3-chloro-2-fluoro-6-(1H-tetrazol-1-yl)phenyl)-1-methyl-2,3-dihydroindolizin-5(1H)-one] | – | – | – | IC50 ([2]; values given with μM): 6600 nM

Further lines, with some results ahead:

Row | IC50 ([1]; values in nM) [nM] | IC50 ([2]; values in nM) [nM] | IC50 ([1]; values given with μM) [nM] | Compound | other results
5 | 39.2 | 2.7 | – | Nc1ccc(-c2cnc([C@H]3CC4(CC4)c4cc(-c5cc(Cl)ccc5-n5cnnn5)cc(=O)n43)[nH]2)c(F)n1 (single isomer, unassigned) [Example 3] | –
6 | 23.5 | 0.3 | – | C[C@H]1C[C@@H](c2ncc(-c3ccc(N)nc3F)[nH]2)n2c1nc(-c1c(-n3cnnn3)ccc(Cl)c1F)cc2=O (relative stereo) [Example 149, (6*S,8*S)-6-(5-(6-Amino-2-fluoropyridin-3-yl)-1H-imidazol-2-yl)-2-(3-chloro-2-fluoro-6-(1H-tetrazol-1-yl)phenyl)-8-methyl-7,8-dihydropyrrolo[1,2-a]pyrimidin-4(6H)-one] | –
7 | – | 92.1 | 2300 | CC1C[C@@H](c2ncc(-c3cnns3)[nH]2)n2c1nc(-c1c(-n3cnnn3)ccc(Cl)c1F)cc2=O (stereo in doubt) [Example 110, (6*S)-6-(5-(1,2,3-Thiadiazol-5-yl)-1H-imidazol-2-yl)-2-(3-chloro-2-fluoro-6-(1H-tetrazol-1-yl)phenyl)-8-methyl-7,8-dihydropyrrolo[1,2-a]pyrimidin-4(6H)-one] | –
8 | 296 | 9 | – | C[C@H]1C[C@@H](c2ncc(-c3ccnn3C)[nH]2)n2c1nc(-c1c(-n3cnnn3)ccc(Cl)c1F)cc2=O (relative stereo) [Example 146, (6*S,8*S)-2-(3-Chloro-2-fluoro-6-(1H-tetrazol-1-yl)phenyl)-8-methyl-6-(5-(1-methyl-1H-pyrazol-5-yl)-1H-imidazol-2-yl)-7,8-dihydropyrrolo[1,2-a]pyrimidin-4(6H)-one] | –
